Values quoted from earlier work, collected in paper PMC11472313, “Development of Fragment-Based Inhibitors of the Bacterial Deacetylase LpxC with Low Nanomolar Activity” (Journal of Medicinal Chemistry, 2024).

Experiments:
[1] = system: E. coli LpxC (EcLpxC); conditions: cited from earlier work
[2] = system: P. aeruginosa LpxC (PaLpxC); conditions: cited from earlier work

SMILES: O=c1ccn([C@@H]2O[C@H](CO/N=C/c3ccc(O)c(O)c3O)[C@@H](O)[C@H]2O)c(=O)[nH]1 [1-68A, 1–68A]
- IC50 [1]: 27000 nM

SMILES: CC(O)(c1ccc(O)cc1)C(NC(=O)c1ccc(C#CC#Cc2ccc(N)cc2)cc1)C(=O)NO (stereo not shown) [3b]
- Ki [1]: 0.024 nM

SMILES: C[C@@](CO)(OCc1ccc(-c2ccccc2)cc1)C(=O)NO [5a]
- IC50 [2]: 22 nM

SMILES: C[C@@](OCc1ccc(-c2ccccc2)cc1)(C(=O)NO)[C@@H](O)c1ccccn1 [5b]
- IC50 [2]: 15 nM

SMILES: C[C@@](OCc1ccc(-c2ccccc2)cc1)(C(=O)NO)[C@@H](O)c1cnc[nH]1 [5c]
- IC50 [2]: 0.8 nM

SMILES: Cc1cc([C@H](O)[C@](C)(OCc2ccc(-c3ccccc3)cc2)C(=O)NO)no1 [5d]
- IC50 [2]: 0.4 nM

SMILES: CCc1ccc(-c2ccc(C(=O)N[C@H](C(=O)NO)[C@@H](C)N)cc2)cc1 [7a]
- PaLpxC: IC50 [2]: 0.5 ng/mL
